This passage reports IC50 results from patent publication US8476298B2 (Exelixis, Inc., priority 2003, dated 2013).

Test [1] addresses T1, c-Met (baculovirus expressed human c-Met kinase domain P948-S1343) (Homo sapiens, UniProt P08581).
T1 construct: human c-Met kinase domain P948-S1343; host or cells: baculovirus expression
The experiment in a line: c-Met Luciferase-Coupled Chemiluminescent Kinase assay (LCCA).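 Note: kinase activity read as percent ATP left after reaction, by luciferase-luciferin chemiluminescence, with 1 µM ATP and 1 µM poly-EY substrate, 2 h at ambient temperature, 10-point dose-response.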 The format is biochemical.

For test [2], the target named is T2, KDR (baculovirus expressed human KDR kinase domain D807-V1356) (Homo sapiens, UniProt P35968).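 Note: Luciferase-coupled chemiluminescent kinase assay, activity read as percent ATP left after 4 h reaction at ambient temperature, ATP near KM, 10-point dose-response in 384-well plates.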
T2 construct: human KDR kinase domain D807-V1356; host or cells: baculovirus expression
T2 sequence (P35968 807-1356): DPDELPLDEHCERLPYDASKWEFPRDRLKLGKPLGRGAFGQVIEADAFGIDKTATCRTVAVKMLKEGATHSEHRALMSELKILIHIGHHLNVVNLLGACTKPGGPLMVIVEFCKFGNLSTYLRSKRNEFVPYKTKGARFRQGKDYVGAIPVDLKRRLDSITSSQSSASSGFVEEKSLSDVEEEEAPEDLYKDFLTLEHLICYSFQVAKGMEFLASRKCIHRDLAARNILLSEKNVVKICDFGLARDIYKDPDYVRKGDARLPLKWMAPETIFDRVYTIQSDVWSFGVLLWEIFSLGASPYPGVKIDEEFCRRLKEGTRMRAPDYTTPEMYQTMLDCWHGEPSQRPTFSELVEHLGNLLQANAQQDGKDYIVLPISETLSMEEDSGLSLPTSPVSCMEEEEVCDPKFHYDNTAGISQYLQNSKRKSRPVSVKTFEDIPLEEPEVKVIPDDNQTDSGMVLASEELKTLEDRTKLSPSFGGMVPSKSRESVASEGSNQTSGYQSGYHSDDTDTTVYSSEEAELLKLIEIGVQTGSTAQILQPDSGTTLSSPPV
The test can be described thus: biochemical.

Setting [3] is: Table 4, inhibition as IC50 class.

pIC50: −log10 of the molar value. Where two headings read alike, the source gives them in different places.

T1 sequence (P08581 1011-1343 limits assumed): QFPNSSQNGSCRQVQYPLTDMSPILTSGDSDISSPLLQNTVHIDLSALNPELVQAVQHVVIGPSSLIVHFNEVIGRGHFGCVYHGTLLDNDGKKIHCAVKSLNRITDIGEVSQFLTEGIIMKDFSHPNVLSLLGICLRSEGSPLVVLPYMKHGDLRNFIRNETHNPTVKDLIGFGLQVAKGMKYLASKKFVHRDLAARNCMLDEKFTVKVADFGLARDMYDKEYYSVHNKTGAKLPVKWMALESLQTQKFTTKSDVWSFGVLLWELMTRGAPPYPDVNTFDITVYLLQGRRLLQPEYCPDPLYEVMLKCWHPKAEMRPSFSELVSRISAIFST

Compound `COc1cc2nccc(Oc3ccc(N4CCN(C(=O)Cc5ccccc5)C4=O)cc3F)c2cc1OC` [Entry 6] had a pIC50 in test [1] of 6.30 to 7.30.
Still for that read-out and setting: in the case of `COc1cc2nccc(Oc3ccc(S(=O)(=O)N(C)CCCc4ccccc4)cc3F)c2cc1OC` [Entry 25] it was 5.30 to 6.30; in that of `COc1cc2nccc(Oc3cc4sc(NC(=O)CCc5ccccc5)nc4cc3F)c2cc1OC` [Entry 53], 5.30 to 6.30.
On the same count and under the same terms, with `COc1cc2nccc(Oc3ccc(NC(=O)C(=O)N[C@H]4CCc5ccccc5C4)cc3F)c2cc1OC` [Entry 62] the figure was 5.30 to 6.30; with `COc1cc2nccc(Oc3ccc(N(Cc4ccccc4)S(=O)(=O)NCc4ccccc4)cc3F)c2cc1OC` [Entry 66], 5.30 to 6.30; with `COc1cc2nccc(Oc3ncc(NC(=O)C(=O)NCCc4ccccc4)cc3Cl)c2cc1OC` [Entry 69], 5.30 to 6.30.
The compound `COc1cc2nccc(Oc3ncc(NC(=O)CC(=O)Cc4ccccc4)cc3Cl)c2cc1OC` [Entry 79] showed a pIC50 in test [1] of 5.30 to 6.30.
For the compound `COc1cc2nccc(Oc3cc4sc(NCCOc5ccccc5)nc4cc3F)c2cc1OC` [Entry 81], in test [1], the pIC50 is 6.30 to 7.30.
With `COc1cc2nccc(Oc3cc4sc(N(C)CCc5ccccc5)nc4cc3F)c2cc1OC` [Entry 83], the pIC50 in test [1] is 5.30 to 6.30.
Same read-out and setting: in the case of `COc1cc2nccc(Oc3cc4sc(NCCN5CCCC5)nc4cc3F)c2cc1OC` [Entry 84] it was 5.30 to 6.30.
Still for that read-out and setting: in the case of `COc1cc2nccc(Oc3cc4sc(NCc5cccc(C(F)(F)F)c5)nc4cc3F)c2cc1OC` [Entry 85] it was 5.30 to 6.30; in that of `COc1cc2nccc(Oc3cc4sc(NCCc5cccc(C(F)(F)F)c5)nc4cc3F)c2cc1OC` [Entry 86], 5.30 to 6.30.
Same read-out and setting: in the case of `COc1cc2nccc(Oc3ncc(NC(=O)CC(=O)Nc4cccc(C(F)(F)F)c4)cc3Cl)c2cc1OC` [Entry 87] it was 5.30 to 6.30.
The compound `COc1cc2nccc(Oc3ncc(NC(=O)CN(Cc4ccccc4)C(=O)OC(C)(C)C)cc3Cl)c2cc1OC` [Entry 92] had a pIC50 in test [1] of 5.30 to 6.30.
The compound `COc1cc2nccc(Oc3ncc(NC(=O)CNCc4ccccc4)cc3Cl)c2cc1OC` [Entry 93] showed a pIC50 in test [1] of 5.30 to 6.30.
Still for that read-out and setting: in the case of `COc1cc2nccc(Oc3ccc(NC(=O)CN(C)CCc4cccc(C(F)(F)F)c4)cc3F)c2cc1OC` [Entry 100] it was 5.30 to 6.30.
The same measure, in the same setting: in the case of `COc1cc2nccc(Oc3ncc(NC(=O)CC(=O)Nc4ccc(Cl)cc4)cc3Cl)c2cc1OC` [Entry 107] it was 6.30 to 7.30.
For `CO/N=C(\C)C(=O)Nc1ccc(Oc2ccnc3cc(OC)c(OC)cc23)cc1` [Example 108, (2E)-N-(4-{[6,7-bis(methyloxy)quinolin-4-yl]oxy}phenyl)-2-[(methyloxy)imino] propanamide], the pIC50 in test [2] and in test [1] was 6.30 to 7.30 throughout.
As to `CCO/N=C(\C)C(=O)Nc1ccc(Oc2ccnc3cc(OC)c(OC)cc23)cc1` [Example 109, (2E)-N-(4-{[6,7-bis(methyloxy)quinolin-4-yl]oxy}phenyl)-2-[(ethyloxy)imino] propanamide], the pIC50 in test [2] is greater than 7.30; in test [1], 6.30 to 7.30.
For `COc1cc2nccc(Oc3ccc(NC(=O)/C(C)=N/OCc4ccccc4)cc3)c2cc1OC` [Example 110, (2E)-N-(4-{[6,7-bis(methyloxy)quinolin-4-yl]oxy}phenyl)-2-{[(phenylmethyl)oxy]imino} propanamide] the same measures were 6.30 to 7.30 and 6.30 to 7.30.
For `COc1cc2nccc(Oc3ccc(NC(=O)[C@@H]4CCCN4Cc4ccccc4)cc3)c2cc1OC` [Example 111, N-(4-{[6,7-bis(methyloxy)quinolin-4-yl]oxy}phenyl)-1-(phenylmethyl)prolinamide] the same measures were 5.30 to 6.30 and 5.30 to 6.30.
With `COc1cc2nccc(Oc3ccc(N4CC(Cc5ccccc5)NC4=O)cc3)c2cc1OC` (stereo not drawn) [Example 113, 1-(4-{[6,7-bis(methyloxy)quinolin-4-yl]oxy}phenyl)-4-(phenylmethyl)imidazolidin-2-one], the pIC50 in test [2] and in test [1] was 5.30 to 6.30 in each case.
In the case of `COc1cc2nccc(Oc3ccc(NC4=NC(Cc5ccccc5)CO4)cc3)c2cc1OC` (stereo not drawn) [Example 114, N-(4-{[6,7-bis(methyloxy)quinolin-4-yl]oxy}phenyl)-4-(phenylmethyl)-4,5-dihydro-1,3-oxazol-2-amine], the pIC50 in test [2] was 6.30 to 7.30; in test [1], 5.30 to 6.30.
For `COc1cc2nccc(Oc3ccc(N4CCN(Cc5ccccc5)CC4)cc3)c2cc1OC` [Example 115, 6,7-bis(methyloxy)-4-({4-[4-(phenylmethyl)piperazin-1-yl]phenyl}oxy)quinoline] the same measures were 5.30 to 6.30 and 5.30 to 6.30.
In the same order, the values of `COc1cc2nccc(Oc3ccc(N4CCN(Cc5ccccc5)CC4=O)cc3)c2cc1OC` [Example 116, 1-(4-{[6,7-bis(methyloxy)quinolin-4-yl]oxy}phenyl)-4-(phenylmethyl)piperazin-2-one] are 5.30 to 6.30 and 5.30 to 6.30.
For `COc1cc2nccc(Oc3ccc(NC(=O)C(C)NCc4ccccc4)cc3)c2cc1OC` (stereo not drawn) [Example 117, N1-(4-{[6,7-bis(methyloxy)quinolin-4-yl]oxy}phenyl)-N2-(phenylmethy)alaninamide] the same measures were 5.30 to 6.30 and 5.30 to 6.30.
For the compound `COc1cc2nccc(Oc3ccc(NC(=O)C(C)N(C)Cc4ccccc4)cc3)c2cc1OC` (stereo not drawn) [Example 118, N1-(4-{[6,7-bis(methyloxy)quinolin-4-yl]oxy}phenyl)-N2-methyl-N2-(phenylmethyl) alaninamide], the pIC50 in test [2] and in test [1] was 5.30 to 6.30 throughout.
Take `COc1cc2nccc(Oc3ccc(NC(=O)[C@H](CC(C)C)NCc4ccccc4)cc3)c2cc1OC` [Example 119, N1-(4-{[6,7-bis(methyloxy)quinolin-4-yl]oxy}phenyl)-N2-(phenylmethyl)leucinamide]: the negative-log IC50 (pIC50) in test [2] and in test [1] was 5.30 to 6.30 throughout.
In the case of `COc1cc2nccc(Oc3ccc(NC(=O)C(CC(C)C)N(C)Cc4ccccc4)cc3)c2cc1OC` (stereo not drawn) [Example 120, N1-(4-{[6,7-bis(methyloxy)quinolin-4-yl]oxy}phenyl)-N2-methyl-N2-(phenylmethyl) leucinamide], the pIC50 in test [2] and in test [1] was 5.30 to 6.30 each time.
For `COc1cc2nccc(Oc3ccc(NC(=O)[C@@H](NCc4ccccc4)C(C)C)cc3)c2cc1OC` [Example 121, N1-(4-{[6,7-bis(methyloxy)quinolin-4-yl]oxy}phenyl)-N2-(phenylmethyl)valinamide], the pIC50 in test [2] and in test [1] was 5.30 to 6.30 each time.
As to `COc1cc2c(Oc3ccc(NC(=O)C(=O)NCCc4ccccc4)cc3F)ccnc2cc1OCC1CNC1` [Example 249, N-(4-{[7-[(azetidin-3-ylmethyl)oxy]-6-(methyloxy)quinolin-4-yl]oxy}-3-fluorophenyl)-N′-(2-phenylethyl)ethanediamide], the pIC50 in test [2] (setting [3]) and in test [1] (setting [3]) was greater than 7.30 in each case.
On to `COc1cc2nccc(Oc3ncc(NC(=O)CC(=O)Nc4ccc(F)cc4F)cc3Cl)c2cc1OC` [Example 252, N-(6-{[6,7-bis(methyloxy)quinolin-4-yl]oxy}-5-chloropyridin-3-yl)-N′-(2,4-difluorophenyl)propanediamide], for which the pIC50 in test [2] (setting [3]) is 5.30 to 6.30; in test [1] (setting [3]), greater than 7.30.
Consider “N-{3-fluoro-4-[(7-(methyloxy)-6- {[(1-methylpiperidin-4- yl)methyl]oxy}quinazolin-4- yl)oxy]phenyl}-N′-(4- fluorophenyl)cyclopropane-1,1- dicarboxamide [Entry 31]”, for which, in test [1], the pIC50 is 5.30 to 6.30.
